Measurements from ChEMBL document CHEMBL3621115, “Discovery of 6-phenylimidazo[2,1-b]thiazole derivatives as a new type of FLT3 inhibitors” (Bioorg Med Chem Lett, 2015).
Activity calls are given as the source filed them. No cut-off for these calls is given here.

Tests used:
ZR-75-1 = experiment: Cytotoxicity against human ZR-75-1 cells assessed as cell viability after 72 hrs by MTT assay; assay type: functional, cell-based; conditions: ZR-75-1, 72 h
[1] = biological target: Vascular endothelial growth factor receptor 2 (Homo sapiens, UniProt P35968); experiment: Inhibition of human recombinant KDR
[2] = biological target: Cyclin-dependent kinase 7 (Homo sapiens, UniProt P50613); experiment: Inhibition of human recombinant CDK7
[3] = biological target: 5'-AMP-activated protein kinase catalytic subunit alpha-1 (Homo sapiens, UniProt Q13131); experiment: Inhibition of human recombinant AMPKalpha1
[4] = biological target: Vascular endothelial growth factor receptor 1 (Homo sapiens, UniProt P17948); experiment: Inhibition of human recombinant Flt1
NCI-H1975 = experiment: Cytotoxicity against human NCI-H1975 cells assessed as cell viability after 72 hrs by MTT assay; assay type: functional, cell-based; conditions: NCI-H1975, 72 h
[5] = biological target: Serine/threonine-protein kinase D1 (Homo sapiens, UniProt Q15139); experiment: Inhibition of human recombinant PKCmu
[6] = biological target: RAF proto-oncogene serine/threonine-protein kinase (Homo sapiens, UniProt P04049); experiment: Inhibition of human recombinant c-RAF
Jurkat = experiment: Cytotoxicity against human Jurkat cells assessed as cell viability after 72 hrs by MTT assay; assay type: functional, cell-based
[7] = biological target: Serine/threonine-protein kinase PLK1 (Homo sapiens, UniProt P53350); experiment: Inhibition of human recombinant Plk1
[8] = biological target: Tyrosine-protein kinase receptor UFO (Homo sapiens, UniProt P30530); experiment: Inhibition of human recombinant Axl
HT-29 = experiment: Cytotoxicity against human HT-29 cells assessed as cell viability after 72 hrs by MTT assay; assay type: functional, cell-based; conditions: HT-29, 72 h
[9] = biological target: Serine/threonine-protein kinase PAK 1 (Homo sapiens, UniProt Q13153); experiment: Inhibition of human recombinant PAK1
[10] = biological target: Serine/threonine-protein kinase PAK 2 (Homo sapiens, UniProt Q13177); experiment: Inhibition of human recombinant PAK2
[11] = biological target: Serine/threonine-protein kinase/endoribonuclease IRE1 (Homo sapiens, UniProt O75460); experiment: Inhibition of human recombinant IRE1
Sequence of Serine/threonine-protein kinase/endoribonuclease IRE1 (O75460 whole entry): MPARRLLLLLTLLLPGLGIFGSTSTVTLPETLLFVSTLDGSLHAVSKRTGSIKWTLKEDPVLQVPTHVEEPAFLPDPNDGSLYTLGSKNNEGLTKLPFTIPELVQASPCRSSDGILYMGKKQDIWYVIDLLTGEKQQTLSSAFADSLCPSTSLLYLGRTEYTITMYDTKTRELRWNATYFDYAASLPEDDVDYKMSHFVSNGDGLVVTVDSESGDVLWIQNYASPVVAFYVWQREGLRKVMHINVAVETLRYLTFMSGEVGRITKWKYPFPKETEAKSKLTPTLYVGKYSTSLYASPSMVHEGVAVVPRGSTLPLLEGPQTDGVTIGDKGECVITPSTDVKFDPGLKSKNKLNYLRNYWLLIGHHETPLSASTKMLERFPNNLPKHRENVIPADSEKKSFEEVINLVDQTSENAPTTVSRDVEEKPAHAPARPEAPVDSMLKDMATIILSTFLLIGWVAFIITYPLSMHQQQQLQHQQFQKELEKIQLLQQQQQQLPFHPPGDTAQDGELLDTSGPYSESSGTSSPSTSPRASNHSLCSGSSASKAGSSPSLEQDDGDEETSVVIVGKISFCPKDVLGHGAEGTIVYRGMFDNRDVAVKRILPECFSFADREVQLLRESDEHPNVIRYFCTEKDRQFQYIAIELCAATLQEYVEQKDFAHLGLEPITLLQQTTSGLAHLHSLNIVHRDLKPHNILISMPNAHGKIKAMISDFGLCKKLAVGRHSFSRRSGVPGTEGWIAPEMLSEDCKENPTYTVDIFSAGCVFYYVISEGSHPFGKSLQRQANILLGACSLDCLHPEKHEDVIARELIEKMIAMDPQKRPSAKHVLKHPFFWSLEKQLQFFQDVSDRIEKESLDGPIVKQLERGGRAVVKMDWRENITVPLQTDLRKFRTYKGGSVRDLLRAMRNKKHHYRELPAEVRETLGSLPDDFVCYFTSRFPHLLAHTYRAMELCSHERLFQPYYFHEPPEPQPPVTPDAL

[12] = biological target: Serine/threonine-protein kinase Chk1 (Homo sapiens, UniProt O14757); experiment: Inhibition of human recombinant CHK1
Sequence of Serine/threonine-protein kinase Chk1 (O14757 whole entry): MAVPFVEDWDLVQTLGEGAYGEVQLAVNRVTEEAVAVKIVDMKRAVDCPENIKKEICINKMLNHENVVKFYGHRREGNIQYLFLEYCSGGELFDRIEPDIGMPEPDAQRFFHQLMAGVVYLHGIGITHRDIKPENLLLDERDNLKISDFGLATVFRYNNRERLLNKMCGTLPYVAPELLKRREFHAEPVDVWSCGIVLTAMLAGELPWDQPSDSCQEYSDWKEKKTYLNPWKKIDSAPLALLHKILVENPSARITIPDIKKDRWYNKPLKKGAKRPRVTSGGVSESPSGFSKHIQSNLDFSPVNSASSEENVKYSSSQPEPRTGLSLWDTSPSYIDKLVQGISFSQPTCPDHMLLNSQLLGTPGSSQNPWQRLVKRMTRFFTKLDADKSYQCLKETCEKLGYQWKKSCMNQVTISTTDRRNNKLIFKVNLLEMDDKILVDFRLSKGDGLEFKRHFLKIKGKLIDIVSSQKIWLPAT

[13] = biological target: Macrophage colony-stimulating factor 1 receptor (Homo sapiens, UniProt P07333); experiment: Inhibition of human recombinant Fms
[14] = biological target: Insulin-like growth factor 1 receptor (Homo sapiens, UniProt P08069); experiment: Inhibition of human recombinant IGF-1R
[15] = Cytotoxicity against human DLD1 cells assessed as cell viability after 72 hrs by MTT assay; assay type: functional, cell-based; conditions: DLD-1, 72 h
[16] = biological target: Tyrosine-protein kinase SYK (Homo sapiens, UniProt P43405); experiment: Inhibition of human recombinant Syk
[17] = biological target: Serine/threonine-protein kinase D2 (Homo sapiens, UniProt Q9BZL6); experiment: Inhibition of human recombinant PKD2
HepG2 = experiment: Cytotoxicity against human HepG2 cells assessed as cell viability after 72 hrs by MTT assay; assay type: functional, cell-based; conditions: HepG2, 72 h
[18] = biological target: Dual specificity mitogen-activated protein kinase kinase 1 (Homo sapiens, UniProt Q02750); experiment: Inhibition of human recombinant MEK1
A2058 = experiment: Cytotoxicity against human A2058 cells assessed as cell viability after 72 hrs by MTT assay; assay type: functional, cell-based; conditions: A2058, 72 h
[19] = Cytotoxicity against human PC9 cells assessed as cell viability after 72 hrs by MTT assay; assay type: functional, cell-based; conditions: PC-9, 72 h
MDA-MB-453 = experiment: Cytotoxicity against human MDA-MB-453 cells assessed as cell viability after 72 hrs by MTT assay; assay type: functional, cell-based; conditions: MDA-MB-453, 72 h
[20] = Cytotoxicity against human SKBR3 cells assessed as cell viability after 72 hrs by MTT assay; assay type: functional, cell-based; conditions: SK-BR-3, 72 h
[21] = Cytotoxicity against human SKHEP1 cells assessed as cell viability after 72 hrs by MTT assay; assay type: functional, cell-based; conditions: SK-HEP1, 72 h
[22] = biological target: Hepatocyte growth factor receptor (Homo sapiens, UniProt P08581); experiment: Inhibition of human recombinant Met
MCF7 = experiment: Cytotoxicity against human MCF7 cells assessed as cell viability after 72 hrs by MTT assay; assay type: functional, cell-based; conditions: MCF7, 72 h
[23] = biological target: Receptor tyrosine-protein kinase erbB-2 (Homo sapiens, UniProt P04626); experiment: Inhibition of human recombinant ErbB2
HeLa = experiment: Cytotoxicity against human HeLa cells assessed as cell viability after 72 hrs by MTT assay; assay type: functional, cell-based
[24] = biological target: Tyrosine-protein kinase ABL2 (Homo sapiens, UniProt P42684); experiment: Inhibition of human recombinant Arg
Sequence of Tyrosine-protein kinase ABL2 (P42684 whole entry): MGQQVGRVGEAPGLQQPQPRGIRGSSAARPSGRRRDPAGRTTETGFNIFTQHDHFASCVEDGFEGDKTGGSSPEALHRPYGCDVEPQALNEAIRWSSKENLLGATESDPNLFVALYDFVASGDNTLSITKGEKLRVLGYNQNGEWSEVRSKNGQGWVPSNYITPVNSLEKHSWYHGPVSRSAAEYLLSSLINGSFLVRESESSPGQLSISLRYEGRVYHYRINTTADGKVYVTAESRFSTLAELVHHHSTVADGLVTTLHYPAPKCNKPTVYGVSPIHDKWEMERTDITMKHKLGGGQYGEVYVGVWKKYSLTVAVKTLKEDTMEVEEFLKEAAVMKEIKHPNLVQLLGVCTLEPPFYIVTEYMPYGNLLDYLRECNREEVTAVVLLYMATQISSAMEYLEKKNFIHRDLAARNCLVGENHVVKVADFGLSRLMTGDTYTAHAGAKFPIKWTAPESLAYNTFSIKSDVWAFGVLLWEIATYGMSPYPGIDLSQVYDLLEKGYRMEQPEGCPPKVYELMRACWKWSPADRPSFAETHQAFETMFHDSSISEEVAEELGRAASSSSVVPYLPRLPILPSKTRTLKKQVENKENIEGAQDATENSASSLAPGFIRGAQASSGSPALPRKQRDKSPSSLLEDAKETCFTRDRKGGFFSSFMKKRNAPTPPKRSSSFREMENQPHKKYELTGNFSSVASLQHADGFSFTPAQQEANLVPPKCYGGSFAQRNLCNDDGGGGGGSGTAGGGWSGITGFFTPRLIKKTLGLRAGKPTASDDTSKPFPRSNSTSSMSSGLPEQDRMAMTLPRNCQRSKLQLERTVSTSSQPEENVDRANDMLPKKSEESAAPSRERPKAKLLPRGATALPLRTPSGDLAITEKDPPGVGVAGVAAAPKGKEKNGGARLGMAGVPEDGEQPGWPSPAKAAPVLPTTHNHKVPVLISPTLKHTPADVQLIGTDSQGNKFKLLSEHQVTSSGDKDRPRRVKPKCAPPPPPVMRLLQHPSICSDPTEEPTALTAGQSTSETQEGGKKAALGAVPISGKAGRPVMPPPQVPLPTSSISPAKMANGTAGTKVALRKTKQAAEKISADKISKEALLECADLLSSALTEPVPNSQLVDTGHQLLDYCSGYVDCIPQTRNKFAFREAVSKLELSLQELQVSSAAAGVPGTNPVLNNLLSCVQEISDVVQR

[25] = Cytotoxicity against human A875 cells assessed as cell viability after 72 hrs by MTT assay; assay type: functional, cell-based; conditions: A875, 72 h
HCT-116 = experiment: Cytotoxicity against human HCT116 cells assessed as cell viability after 72 hrs by MTT assay; assay type: functional, cell-based; conditions: HCT-116, 72 h
Myotonin-protein kinase = Myotonin-protein kinase (Homo sapiens, UniProt Q09013); experiment: Inhibition of human recombinant DMPK
[26] = biological target: Calcium/calmodulin-dependent protein kinase type IV (Homo sapiens, UniProt Q16566); experiment: Inhibition of human recombinant CaMK4
Sequence of Calcium/calmodulin-dependent protein kinase type IV (Q16566 whole entry): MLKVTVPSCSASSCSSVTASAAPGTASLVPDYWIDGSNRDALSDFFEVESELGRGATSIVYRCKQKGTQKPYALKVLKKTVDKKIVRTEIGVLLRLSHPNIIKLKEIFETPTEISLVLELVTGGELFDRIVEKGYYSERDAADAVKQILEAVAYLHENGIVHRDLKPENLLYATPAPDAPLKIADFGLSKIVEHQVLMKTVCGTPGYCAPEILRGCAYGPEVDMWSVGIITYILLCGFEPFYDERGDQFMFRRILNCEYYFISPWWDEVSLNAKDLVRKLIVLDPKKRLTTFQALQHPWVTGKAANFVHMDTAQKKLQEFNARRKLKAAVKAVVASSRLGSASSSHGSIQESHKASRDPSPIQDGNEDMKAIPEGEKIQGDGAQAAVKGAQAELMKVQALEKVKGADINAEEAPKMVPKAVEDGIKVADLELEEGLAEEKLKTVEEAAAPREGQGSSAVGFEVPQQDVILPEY

MV4-11 = experiment: Cytotoxicity against human MV4-11 cells assessed as cell viability after 72 hrs by MTT assay; assay type: functional, cell-based; conditions: MV4-11, 72 h
MDA-MB-157 = experiment: Cytotoxicity against human MDA-MB-157 cells assessed as cell viability after 72 hrs by MTT assay; assay type: functional, cell-based; conditions: MDA-MB-157, 72 h
CWR22R = experiment: Cytotoxicity against human 22Rv1 cells assessed as cell viability after 72 hrs by MTT assay; assay type: functional, cell-based; conditions: 22Rv1, 72 h
[27] = Cytotoxicity against human KYSE-150 cells assessed as cell viability after 72 hrs by MTT assay; assay type: functional, cell-based; conditions: KYSE-150, 72 h
[28] = biological target: Tyrosine-protein kinase Fes/Fps (Homo sapiens, UniProt P07332); experiment: Inhibition of human recombinant Fes
Sequence of Tyrosine-protein kinase Fes/Fps (P07332 whole entry): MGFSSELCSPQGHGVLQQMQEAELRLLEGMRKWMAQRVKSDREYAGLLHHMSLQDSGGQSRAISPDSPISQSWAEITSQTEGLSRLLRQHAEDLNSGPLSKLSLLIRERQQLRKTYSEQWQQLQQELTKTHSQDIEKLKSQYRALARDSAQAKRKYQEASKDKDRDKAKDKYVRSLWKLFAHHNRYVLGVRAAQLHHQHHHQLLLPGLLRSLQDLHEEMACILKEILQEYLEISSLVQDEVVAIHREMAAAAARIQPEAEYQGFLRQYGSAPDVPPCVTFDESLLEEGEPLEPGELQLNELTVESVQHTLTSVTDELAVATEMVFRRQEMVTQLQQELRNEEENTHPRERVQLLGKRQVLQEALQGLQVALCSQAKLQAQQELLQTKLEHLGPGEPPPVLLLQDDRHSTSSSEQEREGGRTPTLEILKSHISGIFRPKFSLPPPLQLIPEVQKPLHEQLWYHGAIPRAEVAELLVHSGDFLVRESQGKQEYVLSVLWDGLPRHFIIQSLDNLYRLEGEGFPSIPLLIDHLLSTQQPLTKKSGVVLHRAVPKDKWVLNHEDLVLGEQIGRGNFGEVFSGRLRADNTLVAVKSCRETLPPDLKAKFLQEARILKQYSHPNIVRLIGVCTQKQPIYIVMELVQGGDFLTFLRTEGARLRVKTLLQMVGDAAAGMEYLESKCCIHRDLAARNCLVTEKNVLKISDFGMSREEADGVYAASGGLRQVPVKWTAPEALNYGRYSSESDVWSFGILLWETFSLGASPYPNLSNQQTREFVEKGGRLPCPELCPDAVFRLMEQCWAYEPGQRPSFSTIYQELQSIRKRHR

[29] = biological target: Epidermal growth factor receptor (Homo sapiens, UniProt P00533); experiment: Inhibition of human recombinant EGFR
MDA-MB-435 = experiment: Cytotoxicity against human MDA-MB-435 cells assessed as cell viability after 72 hrs by MTT assay; assay type: functional, cell-based; conditions: MDA-MB-435, 72 h
BT-474 = experiment: Cytotoxicity against human BT474 cells assessed as cell viability after 72 hrs by MTT assay; assay type: functional, cell-based; conditions: BT-474, 72 h
[30] = biological target: Proto-oncogene tyrosine-protein kinase receptor Ret (Homo sapiens, UniProt P07949); experiment: Inhibition of human recombinant Ret
Sequence of Proto-oncogene tyrosine-protein kinase receptor Ret (P07949 whole entry): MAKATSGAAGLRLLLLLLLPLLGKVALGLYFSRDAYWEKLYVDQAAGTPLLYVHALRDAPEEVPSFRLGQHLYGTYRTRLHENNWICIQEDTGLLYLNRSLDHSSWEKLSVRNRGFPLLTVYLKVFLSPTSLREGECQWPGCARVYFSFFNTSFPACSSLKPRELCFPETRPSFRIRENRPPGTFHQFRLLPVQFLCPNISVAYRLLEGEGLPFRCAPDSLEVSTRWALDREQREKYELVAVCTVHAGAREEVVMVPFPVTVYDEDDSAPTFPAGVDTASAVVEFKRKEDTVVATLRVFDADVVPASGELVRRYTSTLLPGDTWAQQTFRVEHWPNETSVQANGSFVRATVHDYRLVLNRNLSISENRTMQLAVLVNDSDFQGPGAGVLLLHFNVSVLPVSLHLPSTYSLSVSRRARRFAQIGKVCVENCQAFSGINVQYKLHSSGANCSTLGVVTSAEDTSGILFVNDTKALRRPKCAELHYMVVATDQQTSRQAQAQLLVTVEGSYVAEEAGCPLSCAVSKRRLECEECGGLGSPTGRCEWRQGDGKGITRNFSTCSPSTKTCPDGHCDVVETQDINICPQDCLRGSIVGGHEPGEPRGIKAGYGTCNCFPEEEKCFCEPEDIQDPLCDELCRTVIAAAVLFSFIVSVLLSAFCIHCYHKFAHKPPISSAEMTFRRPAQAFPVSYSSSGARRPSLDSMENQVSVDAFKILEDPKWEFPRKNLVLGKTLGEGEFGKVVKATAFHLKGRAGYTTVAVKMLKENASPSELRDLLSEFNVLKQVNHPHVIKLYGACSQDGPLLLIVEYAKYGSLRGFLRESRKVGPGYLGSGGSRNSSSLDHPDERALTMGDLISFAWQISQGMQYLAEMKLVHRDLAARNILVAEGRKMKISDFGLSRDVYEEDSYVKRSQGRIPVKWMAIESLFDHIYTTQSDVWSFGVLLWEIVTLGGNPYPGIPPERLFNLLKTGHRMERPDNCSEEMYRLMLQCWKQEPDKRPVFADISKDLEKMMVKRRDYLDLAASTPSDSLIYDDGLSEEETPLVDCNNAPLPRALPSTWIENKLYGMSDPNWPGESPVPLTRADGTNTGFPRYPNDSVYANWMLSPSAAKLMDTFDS

[31] = biological target: Receptor-type tyrosine-protein kinase FLT3 (Homo sapiens) (UniProt P36888); experiment: Inhibition of FLT3 in human MV4-11 cells assessed as down regulation of STAT5 phosphorylation at >0.001 uM after 6 hrs by Western blotting analysis; assay type: cell-based
A549 = experiment: Cytotoxicity against human A549 cells assessed as cell viability after 72 hrs by MTT assay; assay type: functional, cell-based; conditions: A549, 72 h
Ephrin type-B receptor 2 = Ephrin type-B receptor 2 (Homo sapiens, UniProt P29323); experiment: Inhibition of human recombinant EphB2

IC50 [1]: 2.46 µM
IC50 [2]: > 10 µM
IC50 [3]: > 10 µM
IC50 [4]: 2.83 µM
IC50 [5]: > 10 µM
IC50 [6]: > 10 µM
IC50 [7]: > 10 µM
IC50 [8]: > 10 µM
IC50 [9]: > 10 µM
IC50 [10]: > 10 µM
IC50 [11]: > 10 µM
IC50 [12]: > 10 µM
IC50 [13]: 0.043 µM
IC50 [14]: > 10 µM
IC50 [16]: > 10 µM
IC50 [17]: > 10 µM
IC50 [18]: > 10 µM
IC50 [22]: > 10 µM
IC50 [23]: > 10 µM
IC50 [24]: > 10 µM
IC50 (Myotonin-protein kinase): > 10 µM
IC50 [26]: > 10 µM
IC50 [28]: > 10 µM
IC50 [29]: > 10 µM
IC50 [30]: 0.986 µM
inhibition [31]: Active
IC50 (Ephrin type-B receptor 2): > 10 µM
SMILES: CN(C)CCCNC(=O)c1csc2nc(-c3ccc(NC(=O)Nc4cc(C(C)(C)C)on4)cc3)cn12
IC50 (ZR-75-1): > 10 µM
IC50 (NCI-H1975): > 10 µM
IC50 (Jurkat): 10 µM
IC50 (HT-29): 10 µM
IC50 [15]: 10 µM
IC50 (HepG2): 10 µM
IC50 (A2058): 10 µM
IC50 [19]: > 10 µM
IC50 (MDA-MB-453): > 10 µM
IC50 [20]: 10 µM
IC50 [21]: 10 µM
IC50 (MCF7): > 10 µM
IC50 (HeLa): 20 µM
IC50 [25]: 10 µM
IC50 (HCT-116): 10 µM
IC50 (MV4-11): 0.002 µM
IC50 (MDA-MB-157): > 10 µM
IC50 (CWR22R): > 10 µM
IC50 [27]: > 10 µM
IC50 (MDA-MB-435): > 10 µM
IC50 (BT-474): 10 µM
IC50 (A549): 10 µM
